Measured values: ChEMBL document CHEMBL3091353, “Trisubstituted and tetrasubstituted pyrazolines as a novel class of cell-growth inhibitors in tumor cells with wild type p53” (Bioorg Med Chem, 2013)
The source made the active and inactive calls. No cut-off for these calls is given here.

Assays:
[1] = molecular target: E3 ubiquitin-protein ligase Mdm2 (Homo sapiens) (UniProt Q00987); assay: Displacement of carboxyfluorescein-labeled LTFEHYWAQLTS-FAM from MDM2 (unknown origin) (2 to 125) at 0.005 to 1 mM by fluorescence anisotropic analysis
[2] = Cytotoxicity against human H1299 cells after 72 hrs by CellTiterGlo luciferase-based assay; assay type: functional, cell-based; conditions: NCI-H1299, 72 h
[3] = test system: HCT-116; assay: Cytotoxicity against human HCT116 cells after 72 hrs by CellTiterGlo luciferase-based assay; assay type: functional, cell-based; conditions: HCT-116, 72 h
[4] = molecular target: E3 ubiquitin-protein ligase Mdm2 (Homo sapiens) (UniProt Q00987); assay: Displacement of carboxyfluorescein-labeled LTFEHYWAQLTS-FAM from human MDM2 (16 to 116) expressed in Escherichia coli C41 at 0.005 to 1 mM by fluorescence anisotropic analysis
[5] = Ratio of IC50 for human H1299 cells to IC50 for human HCT116 cells; conditions: H1299 cells and HCT116 cells
[6] = molecular target: Cellular tumor antigen p53 (Homo sapiens) (UniProt P04637); assay: Induction of p53 translocation in human HCT116 cells assessed as protein nuclear to cytosolic ratio at 30 uM after 20 hrs by immunofluorescence analysis; assay type: cell-based; conditions: HCT-116
[7] = test system: NCI-H1299; assay: Cytotoxicity against human H1299 cells at 20 uM after 72 hrs by CellTiterGlo luciferase-based assay; assay type: functional, cell-based
[8] = test system: HCT-116; assay: Cytotoxicity against human HCT116 cells at 20 uM after 72 hrs by CellTiterGlo luciferase-based assay; assay type: functional, cell-based

Chain of E3 ubiquitin-protein ligase Mdm2 (Homo sapiens) (Q00987 whole entry, looked up): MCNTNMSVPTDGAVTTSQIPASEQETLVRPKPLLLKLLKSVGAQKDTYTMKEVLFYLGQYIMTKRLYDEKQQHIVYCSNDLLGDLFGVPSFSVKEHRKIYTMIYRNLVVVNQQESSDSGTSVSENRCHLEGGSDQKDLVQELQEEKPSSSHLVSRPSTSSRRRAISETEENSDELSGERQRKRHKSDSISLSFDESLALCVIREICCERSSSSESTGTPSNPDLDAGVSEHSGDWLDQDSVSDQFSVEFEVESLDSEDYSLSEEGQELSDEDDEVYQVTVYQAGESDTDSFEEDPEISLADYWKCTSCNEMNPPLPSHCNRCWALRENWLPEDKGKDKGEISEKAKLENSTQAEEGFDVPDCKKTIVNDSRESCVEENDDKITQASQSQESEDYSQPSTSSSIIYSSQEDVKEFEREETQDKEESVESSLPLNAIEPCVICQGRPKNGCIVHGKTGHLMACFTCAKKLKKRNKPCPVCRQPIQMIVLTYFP
Chain of Cellular tumor antigen p53 (Homo sapiens) (P04637 whole entry, looked up): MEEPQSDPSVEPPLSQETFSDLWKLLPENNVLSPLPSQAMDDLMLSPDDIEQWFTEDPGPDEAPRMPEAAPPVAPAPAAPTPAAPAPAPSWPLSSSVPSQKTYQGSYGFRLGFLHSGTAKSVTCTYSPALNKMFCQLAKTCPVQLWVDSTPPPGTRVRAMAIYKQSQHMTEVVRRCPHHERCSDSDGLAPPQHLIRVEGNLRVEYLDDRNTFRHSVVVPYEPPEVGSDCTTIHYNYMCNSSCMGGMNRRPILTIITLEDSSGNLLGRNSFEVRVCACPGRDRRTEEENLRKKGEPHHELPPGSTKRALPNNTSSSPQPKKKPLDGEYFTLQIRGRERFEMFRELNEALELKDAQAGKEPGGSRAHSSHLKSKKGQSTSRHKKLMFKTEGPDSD

Row | SMILES | inhibition [1] | IC50 [2] | IC50 [3] | inhibition [4] | selectivity ratio [5] | Activity [6] | inhibition [7] | inhibition [8]
1 | CC(C)(C)C1=NN(c2ccc(Br)cc2)C(c2ccc(Cl)cc2)C1 (stereo not drawn) | Active | 19.4 µM | 4.3 µM | Active | – | – | – | –
2 | CC(C)(C)C1=NN(c2ccc(Cl)cc2)C(c2ccc(Cl)cc2)C1C(=O)N1CCOCC1 (stereo not drawn) | Active | 14.2 µM | 3.5 µM | Active | – | – | – | –
3 | CC(C)(C)C1=NN(c2ccc(Cl)cc2)C(c2ccc(Cl)cc2)C1 (stereo not drawn) | Active | 19.3 µM | 17.3 µM | Active | – | – | – | –
4 | COc1ccc(C2=N[C@@H](c3ccc(Cl)cc3)[C@@H](c3ccc(Cl)cc3)N2C(=O)N2CCNC(=O)C2)c(OC(C)C)c1 [NUTLIN-3] | – | 14.7 µM | 1.6 µM | – | 9 | – | – | –
5 | CC(C)(C)C1=NN(c2ccc(Cl)cc2)C(c2ccc(Cl)c(Cl)c2)C1 (stereo not drawn) | Active | 14.8 µM | 5.3 µM | Active | – | – | – | –
6 | CC(C)(C)C1=NN(c2ccc(Cl)cc2)C(c2ccc3ccccc3c2)C1 (stereo not drawn) | Active | – | 12.7 µM | Active | – | – | – | –
7 | COc1cccc(C2=NN(c3ccc(Cl)cc3)C(c3cccc(Cl)c3)C2)c1 (stereo not drawn) | inactive | – | 18.5 µM | inactive | – | – | – | –
8 | COc1cccc(C2=NN(c3ccccc3Cl)C(c3ccccc3Cl)C2)c1 (stereo not drawn) | inactive | 13.6 µM | 2.5 µM | inactive | – | inactive | – | –
9 | COc1ccc(C2=NN(c3ccccc3Cl)C(c3cccc(Cl)c3)C2)cc1 (stereo not drawn) | inactive | 7.2 µM | 1.5 µM | inactive | – | – | – | –
10 | COc1ccccc1C1=NN(c2cccc(Cl)c2)C(c2cccc(Cl)c2)C1 (stereo not drawn) | inactive | 11.7 µM | 1.6 µM | inactive | – | – | – | –
11 | COc1ccccc1C1=NN(c2ccccc2Cl)C(c2cccc(Cl)c2)C1 (stereo not drawn) | inactive | 13.4 µM | 1.9 µM | inactive | – | – | – | –
12 | COc1ccc(C2=NN(c3cccc(Cl)c3)C(c3ccccc3Cl)C2)cc1 (stereo not drawn) | – | – | – | – | – | – | Active | Active
13 | CCOc1ccccc1C1=NN(c2ccc(Cl)cc2)C(c2ccc(Cl)cc2)C1C(=O)N1CCOCC1 (stereo not drawn) | inactive | 8.4 µM | 8 µM | inactive | – | – | – | –
